The target of the test is T1, Kv7.2/7.3 (Homo sapiens, UniProt O43525+O43526).
T1 construct: Kv7.2 tetracycline-induced, Kv7.3 constitutive
The experiment in a line: Kv7.2/7.3 Activation Assay (Thallium Flux Assay). Type of test: cell-based. The note with it: hKV7.2/7.3 cell line; test compound at single concentration of 10 μM; fluorescence at 90 sec normalized to positive control (retigabine, 30 μM). Put shortly:
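Human Kv7.2/7.3 cells with Kv7.2 induced overnight by 10 ng/mL tetracycline were loaded with FluxOR II Green for 1 h at 37 °C. Compounds were tested at 10 μM in 0.1% DMSO/extracellular solution, pH 7.4. Thallium/potassium stimulus was added after a 15 s baseline, and 90 s fluorescence (ex 475/em 530 nm) was normalized to 30 μM retigabine.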
For `Cn1nc(NC(=O)C2CSC2)c(C2CCC2)c1-c1ccc(F)cc1` [Compound 205, N-(4-cyclobutyl-5-(4-fluorophenyl)-1-methyl-1H-pyrazol-3-yl)thietane-3-carboxamide], the “Kv7.2/7.3 Activity” value is reported as “++ (“++” High Activity ≥ 0.7)”.

With `Cn1nc(NC(=O)C[C@H]2CC(F)(F)C2(F)F)c(C2CCC2)c1-c1ccc(C(C)(C)O)cc1` [Compound 34, (S)-N-(4-cyclobutyl-5-(4-(2-hydroxypropan-2-yl)phenyl)-1-methyl-1H-pyrazol-3-yl)-2-(2,2,3,3-tetrafluorocyclobutyl)acetamide], the “Kv7.2/7.3 Activity” value is “+ (“+” Moderate Activity 0.15-0.7)”.

Regarding `Cn1nc(NC(=O)[C@H]2C[C@](C)(F)C2)c(C2CCC2)c1-c1ccc(F)cc1` [Compound 202, (1r,3r)-N-(4-cyclobutyl-5-(4-fluorophenyl)-1-methyl-1H-pyrazol-3-yl)-3-fluoro-3-methylcyclobutane-1-carboxamide], the “Kv7.2/7.3 Activity” value was “++ (“++” High Activity ≥ 0.7)”.

On to `Cn1nc(NC(=O)[C@H]2C[C@](C)(F)C2)c(C2CCC2)c1-c1cnc(C(F)(F)F)s1` [Compound 203, (1r,3r)-N-(4-cyclobutyl-1-methyl-5-(2-(trifluoromethyl)thiazol-5-yl)-1H-pyrazol-3-yl)-3-fluoro-3-methylcyclobutane-1-carboxamide], for which the “Kv7.2/7.3 Activity” value is “+ (“+” Moderate Activity 0.15-0.7)”.

As for `Cn1nc(NC(=O)C2(c3ccccc3)CC2)c(C2CCC2)c1-c1ccc(F)cc1` [Compound 103, N-(4-cyclobutyl-5-(4-fluorophenyl)-1-methyl-1H-pyrazol-3-yl)-1-phenylcyclopropane-1-carboxamide], the “Kv7.2/7.3 Activity” value was “+ (“+” Moderate Activity 0.15-0.7)”.

Take `Cn1nc(NC(=O)C2(C(F)(F)F)CC2)c(C2CCC2)c1-c1ccccc1F` [Compound 170, N-(4-cyclobutyl-5-(2-fluorophenyl)-1-methyl-1H-pyrazol-3-yl)-1-(trifluoromethyl)cyclopropane-1-carboxamide]: the “Kv7.2/7.3 Activity” value is “+ (“+” Moderate Activity 0.15-0.7)”.

Turning to `Cn1nc(NC(=O)CC2CC(F)(F)C2)c(C2CCC2)c1CC1CC1` [Compound 80, N-(4-cyclobutyl-5-(cyclopropylmethyl)-1-methyl-1H-pyrazol-3-yl)-2-(3,3-difluorocyclobutyl)acetamide], the “Kv7.2/7.3 Activity” value is listed as “++ (“++” High Activity ≥ 0.7)”.

In the case of `Cc1c(C2CCC2)c(NC(=O)CC(C)(C)C(F)(F)F)nn1Cc1ccc(F)cc1` [Compound 94, N-(4-cyclobutyl-1-(4-fluorobenzyl)-5-methyl-1H-pyrazol-3-yl)-4,4,4-trifluoro-3,3-dimethylbutanamide], the “Kv7.2/7.3 Activity” value is on record as “− (“−” No Activity < 0.15)”.

For the origin of these results see patent US20250171430A1, “PYRAZOLYL COMPOUNDS AS KV7 CHANNEL ACTIVATORS” (Biohaven Therapeutics Ltd., priority 2022, published 2025).
